Inconclusive results and toxic doses are left out. The calls were made as follows: active = survival T/C of 150% or more; inactive = T/C below 125% in these data.
Test system: CD2F1 mice, L1210 leukemia ip, survival T/C
Test: NCI In Vivo Anticancer Drug Screen. Data for tumor model L1210 Leukemia (intraperitoneal) in CD2F1 (CDF1) mice
Settings: endpoint: mean survival time, higher = longer survival
How it was run: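 Compound-dosed mice with transplantable tumor versus matched vehicle controls; endpoint ratio T/C reported.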

[1] = dose: 100.0 mg/kg/injection, schedule: Q04DX003 (ip), vehicle: saline with Tween-80
[2] = dose: 200.0 mg/kg/injection, schedule: Q04DX003 (ip), vehicle: saline with Tween-80
[3] = dose: 400.0 mg/kg/injection, schedule: Q04DX003 (ip), vehicle: saline with Tween-80
[4] = dose: 100.0 mg/kg/injection, schedule: Q01DX001 (ip), vehicle: saline with Tween-80
[5] = dose: 200.0 mg/kg/injection, schedule: Q01DX001 (ip), vehicle: saline with Tween-80
[6] = dose: 400.0 mg/kg/injection, schedule: Q01DX001 (ip), vehicle: saline with Tween-80
[7] = dose: 100.0 mg/kg/injection, schedule: Q01DX009 (ip), vehicle: saline with Tween-80
[8] = dose: 200.0 mg/kg/injection, schedule: Q01DX009 (ip), vehicle: saline with Tween-80
[9] = dose: 400.0 mg/kg/injection, schedule: Q01DX009 (ip), vehicle: saline with Tween-80

Measured: T/C

CCOC(=O)/C(=C/C(C#N)=C/N(C)C)CC
inactive: dose: 100.0 mg/kg/injection, schedule: Q04DX003 (ip), vehicle: saline sonified 93 % of control | dose: 200.0 mg/kg/injection, schedule: Q04DX003 (ip), vehicle: saline sonified 108 % of control

COc1ccc(NC(=O)Nc2ccccc2C(F)(F)F)cc1
inactive: [1] 98 % of control | [2] 96 % of control | [3] 90 % of control

CCOC(=O)C(C)Oc1ccc(Cl)cc1 (stereo not given)
inactive: dose: 25.0 mg/kg/injection, schedule: Q01DX009 (ip), vehicle: water 107 % of control | dose: 50.0 mg/kg/injection, schedule: Q01DX009 (ip), vehicle: water 106 % of control | dose: 100.0 mg/kg/injection, schedule: Q01DX009 (ip), vehicle: water 106 % of control | dose: 200.0 mg/kg/injection, schedule: Q01DX009 (ip), vehicle: water 107 % of control | dose: 400.0 mg/kg/injection, schedule: Q01DX009 (ip), vehicle: water 109 % of control

c1ccc2c(c1)[nH]c1nc3ncncc3nc12
inactive: dose: 100.0 mg/kg/injection, schedule: Q01DX009 (ip), vehicle: saline 98 % of control | dose: 200.0 mg/kg/injection, schedule: Q01DX009 (ip), vehicle: saline 104 % of control | dose: 400.0 mg/kg/injection, schedule: Q01DX009 (ip), vehicle: saline 112 % of control

O=C1CCC([N+](=O)[O-])C(c2cccc3ccccc23)N1 (stereo not given)
inactive: [4] 94 % of control | [5] 94 % of control | [6] 97 % of control

O=C1C(c2ccccc2)=C(c2ccccc2)c2cc(Br)c(Br)cc21
inactive: dose: 50.0 mg/kg/injection, schedule: Q01DX001 (ip), vehicle: saline with Tween-80 93 % of control | [4] 93 % of control | [5] 93 % of control

COc1cccc2c1C(=O)c1c(O)c3c(c(O)c1C2=O)C[C@@](O)(C(C)O)C[C@@H]3OC1CC(N)C(O)C(C)O1 (stereo not given in full)
inactive: dose: 0.65 mg/kg/injection, schedule: Q01DX009 (ip), vehicle: saline 112 % of control | dose: 1.08 mg/kg/injection, schedule: Q01DX009 (ip), vehicle: saline 113 % of control | dose: 3.0 mg/kg/injection, schedule: Q04DX003 (ip), vehicle: saline 120 % of control | dose: 13.3 mg/kg/injection, schedule: Q01DX009 (ip), vehicle: saline 96 % of control

CCCCCn1c(CN2CCCCC2)nc2c1-c1ccccc1C(=O)C2=O
inactive: [1] 96 % of control | [2] 103 % of control | [3] 103 % of control

CCCCNC(=O)Nc1ccc(C(=O)OCC(C)C)cc1
inactive: [7] 94 % of control | [1] 108 % of control | [8] 91 % of control | [2] 94 % of control | [9] 90 % of control | [3] 90 % of control

CC(=O)CCC(=O)OC1CCCCC1
inactive: [1] 102 % of control | [2] 97 % of control | [3] 97 % of control

CN(C)C(=O)Sc1ccc(N(C)C)cc1
inactive: dose: 200.0 mg/kg/injection, schedule: Q04DX002 (ip), vehicle: saline with Tween-80 107 % of control | dose: 400.0 mg/kg/injection, schedule: Q04DX002 (ip), vehicle: saline with Tween-80 107 % of control

CC(C)NC1=C(NC(=O)NC(=O)c2ccccc2)C(=O)c2ccccc2C1=O
inactive: dose: 100.0 mg/kg/injection, schedule: Q01DX001 (ip), vehicle: other 100 % of control | dose: 200.0 mg/kg/injection, schedule: Q01DX001 (ip), vehicle: other 103 % of control | dose: 400.0 mg/kg/injection, schedule: Q01DX001 (ip), vehicle: other 106 % of control

O=C(O)C(O)(C1CCCCC1)C1CCC2CCC3CCCC1C32 (stereo not given)
inactive: [1] 105 % of control | [2] 87 % of control | [3] 105 % of control

C=CCN1C(=O)c2ccccc2C1=O
inactive: [7] 98 % of control | [1] 97 % of control | [8] 94 % of control | [2] 101 % of control | [9] 100 % of control | [3] 101 % of control

CCCCCCCCCCCCCCOc1ccc(OCCCCCCCCC)cc1
inactive: [4] 94 % of control | [5] 94 % of control | [6] 95 % of control

O=c1oc2ccccc2c(O)c1-c1cccc2ccccc12
inactive: dose: 12.5 mg/kg/injection, schedule: Q01DX009 (ip), vehicle: saline with Tween-80 91 % of control | dose: 25.0 mg/kg/injection, schedule: Q01DX009 (ip), vehicle: saline with Tween-80 103 % of control | dose: 50.0 mg/kg/injection, schedule: Q01DX009 (ip), vehicle: saline with Tween-80 100 % of control

— PubChem BioAssay AID256 (DTP/NCI, 2004)
